Reference: patent US10238713B2, “Cyclic tetrapeptides and therapeutic applications thereof” (LODZ UNIVERSITY OF TECHNOLOGY, priority 2010, dated 2019)
Non-standard residues stand in square brackets, D forms with d. Residues, ends and D or L forms follow the SMILES beside them. β3hF = N[C@H](CC(=O)O)Cc1ccccc1

What was measured:
[1] = test system: mice, carrageenan air pouch; test: Carrageenan air-pouch test (exudate cell number); type: in vivo, mouse; settings: peptides 100 μg i.p. one hour before carrageenan, 24 h; FIGS. 18A-18B
Summary of the method: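 Mice received peptide i.p. (100 μg, from DMSO/0.9% NaCl) one hour before intra-pouch 1% carrageenan in a 3-day dorsal air pouch; dexamethasone i.p. served as reference. Exudate was aspirated 24 h later after adding 1 ml saline, and cells were counted by hemocytometer (×10^6 per mouse, mean ±SE, 10 mice/group).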

[2] = test system: CBA mice, humoral immune response to sheep erythrocytes; test: Primary humoral immune response to SRBC in vivo (antibody-forming cells in spleen); settings: 10 or 100 μg, intraperitoneal, 2 h after immunization, measured after 4 days; FIG. 6
Procedure: CBA female mice, 8-12 weeks old, were delivered by The Institute of Laboratory Medicine, Lodz, Poland. The mice had free access to water and pelleted food. The local ethics committee approved the study. Sheep erythrocytes (SRBC) were delivered by Wroclaw University of Life and Environmental Sciences, Poland, and maintained on RPMI-1640 medium.
Mice were immunized with 0.2 ml of 5% SRBC suspension (0.5 ml of SRBC pellet re-suspended to a volume of 10 ml of 0.9% NaCl), intraperitonelly. After 4 days the number of antibody-forming cells (AFC) in the spleens was determined using an assay of local hemolysis in agar gel (per Mishell et al., J Exp Med, 1967, 126, 423-442). The results are presented in FIG. 6 as a mean value of 5 mice ±standard error and expressed as AFC number per 10^6 of viable splenocytes.
Mice were immunized with SRBC as described above and after 2 h were given 10 or 100 μg of the compound of formula I-A. Cyclosporin A (CsA) served as a reference drug. The number of antibody-forming cells to SRBC was measured after 4 days.

## O=C1C[C@H](Cc2ccccc2)NC(=O)[C@@H]2CCCN2C(=O)[C@@H]2CCCN2C(=O)[C@H](Cc2ccccc2)N1 [I-A] (cyclo(FPP[β3hF]))
[1]
  air pouch exudate cell number, P vs Control: 0.0005
[2]
  inhibition of the number of antibody-forming cells to SRBC: more inhibitory at both doses than CsA
